Read-outs that look alike come from different tables or passages of the source.
Legend:
[1] = biological target: T1, human serum albumin (HSA) (Homo sapiens, UniProt P02768); assay: Fluorescence emission spectrum (quenching) of HSA with carbamate pesticides; assay type: binding; conditions: for Ksv (37°) / ΔG(37°) / Binding distance/r / Number of binding sites/n: modelling table; for Kq / Ksv / n (number of binding sites) / Kd: pH 7.4; for R (binding distance): Förster energy transfer; for fluorescence of HSA quenched by pesticide: titration of pesticide; for ΔH^0 / ΔS^0: Van't Hoff, 296-310 K
Experimental: the mixed solution to be tested was preheated at […] for 3 minutes, and the emission spectrum of HSA with carbamate pesticides was measured at 300-500 nm . The excitation wavelength was set at 280 nm , and the slit width for both excitation and emission was 15 nm; the HSA concentration was kept constant at 5×10^−7 M, and the pesticide concentration was (0-105)×10^−7 M.
The internal filtering effect of fluorescence signal was corrected according to the following formula: Fcor=Fobsexp[(Aex+Aem)/2] (1);
in this formula, Fcor and Fobs represent corrected fluorescence signal and observed fluorescence signal, respectively, and Aex and Aem represent absorbance of the mixed solution to be tested at excitation wavelength and emission wavelengths, respectively; the quenching constant, number of binding sites, binding constant, free energy and binding distance of different drugs were obtained by fluorescence emission spectra, and a BP neural network model was obtained. Specifically, they were obtained as follows:
There is a linear relationship between F0/F and [Q] to distinguish whether it is static quenching or dynamic quenching. The fluorescence quenching data are analyzed by Stern-Volmer equation to clarify the quenching mechanism: F0/F=1+KSV[Q]=1+Kqτ0[Q] (2);
in the formula, F0 and F are fluorescence signals […] quencher, respectively. Ksv is Stern-Volmer quenching constant; Kq is a quenching rate constant of biomolecules; τ0 is the average lifetime of biomolecules without quencher (about 10^−8 s); [Q] is the concentration of quencher.
The maximum dynamic quenching rate constant of all kinds of quenchers on polymers was 2.0×10^10 L·mol^−1·s^−1. Static quenching and dynamic quenching could be judged according to this value. If K^q was greater than 2.0×10^10 L·mol^−1·s^−1, it belonged to static quenching. Otherwise, it belonged to dynamic quenching.
In this part, the binding sites and binding constants between carbamate pesticides and HSA were calculated. The following formula was used to calculate the number of binding sites (n) and the binding constant (Ka) of carbamate pesticides and HSA: log[(F0−F)/F]=log Ka+nlog[Q] (3);
The interactions between biological molecules and drug molecules were weak intermolecular interactions, including hydrogen bonds, van der Waals forces, electrostatic forces and hydrophobic interactions. By using Van't Hoff equation, the thermodynamic constants of drug-protein interaction were obtained, and the main types of drug-protein interaction were judged according to the changes of binding constants under different conditions. LnK=−ΔH^0/RT+ΔS^0/R (4); ΔG^0=ΔH^0−TΔS^0 (5);
There is a relationship among energy transfer efficiency E, distance r between energy donor and energy receptor and energy transfer distance R0. E=1−F/F0=R0^6/(R0^6+r^6) (6);
E represents the transfer efficiency between donor and receptor, r is the average distance between donor and receptor, and R0 is the critical distance when the transfer efficiency is 50%. R0^6=8.79×10^−K^2N^−4φJ (7)
K^2 is the orientation related to the geometry of donor and receptor of dipole. For random orientation in fluid, K^2=2/3; N is the average refractive index of the medium in the wavelength range with obvious spectral overlap, and the refractive index of water and organic matter is 1.336; φ is the quantum yield of donor, and the quantum yield of tryptophan in HSA is about 0.118; J represents the influence of spectral overlap between the emission spectrum of the donor and the absorption spectrum of the receptor, and can be calculated by the following formula: j=ΣF(λ)ϵ(λ)λ^4Δλ/ΣF(λ) Δλ (8);
F(λ) is the corrected fluorescence signal of the donor in the wavelength range from λ to (λ+Δλ), while ϵ(λ) is the extinction coefficient of the receptor at λ.

[2] = biological target: T1, human serum albumin (HSA); assay: Circular dichroism spectrum, secondary structure (α-helix content) of HSA; conditions: HSA 2×10^−6 M
Experimental: the mixed solution to be tested was preheated at […] for 2-5 minutes, and the CD spectrum of HSA was recorded in the wavelength range of 200-500 nm . The concentration of HSA was kept at 2×10^−6 M, and the pesticide was (0-20)×10^−6 m. Firstly, HSA was measured, and then the ratio of HSA to pesticides needed to be determined specifically, which was preliminarily determined according to the ratio of 1:1, 1:2 and 1:3.
According to the following equation, the result of CD spectrum was usually expressed as the mean residue ellipticity (MRE), and the unit was deg·cm^2·dmol^−1. MRE=ObservedCD(mdeg)/(10Cpnl) (9);
in which Cp is the molar concentration of protein, n is the number (585) of amino acid residues, and 1 is the path length (1 mm). The α helicity of free and bound HSA is calculated from MRE values using the following formula: α−Helix(%)=[(−MRE208−4000)×100]/(33000-4000) (10)
in which the MRE208 is the MRE value observed at 208 nm , 4000 is the MRE value of random coil conformation at 208 nm , and […] is the MRE value of pure α helix at 208 nm .

[3] = cited from earlier work; for LD50: modelling table; for Toxicity: toxicity grade by LD50, trailing figure = number of pesticides in group

T1 sequence (P02768 25-609): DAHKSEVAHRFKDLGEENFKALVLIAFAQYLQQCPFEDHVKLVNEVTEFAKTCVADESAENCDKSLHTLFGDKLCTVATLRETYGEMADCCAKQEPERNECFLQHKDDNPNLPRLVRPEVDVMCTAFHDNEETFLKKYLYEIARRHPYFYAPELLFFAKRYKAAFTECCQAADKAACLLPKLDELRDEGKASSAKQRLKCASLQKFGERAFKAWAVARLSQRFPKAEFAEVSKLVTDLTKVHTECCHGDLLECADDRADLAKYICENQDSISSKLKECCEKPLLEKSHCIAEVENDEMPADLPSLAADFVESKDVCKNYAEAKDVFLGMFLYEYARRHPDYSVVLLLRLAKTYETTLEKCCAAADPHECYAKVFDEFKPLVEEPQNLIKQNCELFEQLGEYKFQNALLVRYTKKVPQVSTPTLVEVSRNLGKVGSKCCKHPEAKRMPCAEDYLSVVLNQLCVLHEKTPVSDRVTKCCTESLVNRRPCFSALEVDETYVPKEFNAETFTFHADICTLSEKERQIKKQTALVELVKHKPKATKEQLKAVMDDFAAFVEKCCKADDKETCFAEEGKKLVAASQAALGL

| SMILES | Ksv (37°) [1] | ΔG(37°) [1] | ΔG^0 ([1]; 296 K) [kcal/mol] | Kq ([1]; 296 K) | Ksv ([1]; 296 K) | n (number of binding sites) ([1]; 296 K) | ΔG^0 ([1]; 303 K) [kcal/mol] | Kq ([1]; 303 K) | Ksv ([1]; 303 K) | n (number of binding sites) ([1]; 303 K) | ΔG^0 ([1]; 310 K) [kcal/mol] | R (binding distance) ([1]; 310 K) [nm] | Kq ([1]; 310 K) | Ksv ([1]; 310 K) | n (number of binding sites) ([1]; 310 K) | fluorescence of HSA quenched by pesticide ([1]; 310 K) | ΔH^0 [1] [kcal/mol] | ΔS^0 [1] [J · mol^−1 · K^−1] | Binding distance/r [1] | Number of binding sites/n [1] | also measured |
| --- | --- | --- | --- | --- | --- | --- | --- | --- | --- | --- | --- | --- | --- | --- | --- | --- | --- | --- | --- | --- | --- |
| CNC(=O)O/N=C(\C)C(C)S(C)(=O)=O (stereo not drawn) [Butoxycarboxim, butoxycarboxim] | 62644.83638 | −20.24 | -3.7366 | 2.888 ± 0.064 10^12 M^−1s^−1 | 2.888 ± 0.064 10^4 M^−1 | 0.658 ± 0.002 | -4.2875 | 4.798 ± 0.112 10^12 M^−1s^−1 | 4.798 ± 0.112 10^4 M^−1 | 0.679 ± 0.002 | -4.8384 | 1.964 | 6.264 ± 0.074 10^12 M^−1s^−1 | 6.264 ± 0.074 10^4 M^−1 | 0.725 ± 0.001 | quenched | 19.556 | 329.251 | 1.964 | 0.725 | Kd ([1]; 296 K, read-out: Ka (binding constant)): 1720 µM; Kd ([1]; 303 K, read-out: Ka (binding constant)): 832 µM; Kd ([1]; 310 K, read-out: Ka (binding constant)): 382 µM; α-helix contents ([2]; 5:1 (Pesticide:HSA)): 53.753%; α-helix contents ([2]; 10:1 (Pesticide:HSA)): 52.790%; LD50 [3]: 458 mg/kg; Toxicity [3]: Moderately |
| CNC(=O)Oc1cccc2c1OC(C)(C)C2 [Carbofuran, carbofuran] | 87696.31575 | −25.15 | -5.0459 | 5.563 ± 0.123 10^12 M^−1s^−1 | 5.563 ± 0.123 10^4 M^−1 | 0.797 ± 0.002 | -5.5287 | 7.239 ± 0.082 10^12 M^−1s^−1 | 7.239 ± 0.082 10^4 M^−1 | 0.822 ± 0.002 | -6.0117 | 1.938 | 8.770 ± 0.088 10^12 M^−1s^−1 | 8.770 ± 0.088 10^4 M^−1 | 0.862 ± 0.002 | quenched | 15.374 | 288.639 | 1.938 | 0.8616 | Kd ([1]; Ka (binding constant), 296 K): 185 µM; Kd ([1]; Ka (binding constant), 303 K): 107 µM; Kd ([1]; Ka (binding constant), 310 K): 56.7 µM; α-helix contents ([2]; 5:1 (Pesticide:HSA)): 51.483%; α-helix contents ([2]; 10:1 (Pesticide:HSA)): 48.304%; LD50 [3]: 5 mg/kg; Toxicity [3]: Highly |
| CCSCc1ccccc1OC(=O)NC [Ethiofencarb, ethiofencarb] | 41346.56830 | −17.7 | -3.4355 | 2.562 ± 0.137 10^12 M^−1s^−1 | 2.562 ± 0.137 10^4 M^−1 | 0.613 ± 0.003 | -3.8329 | 3.301 ± 0.074 10^12 M^−1s^−1 | 3.301 ± 0.074 10^4 M^−1 | 0.645 ± 0.009 | -4.2302 | 2.363 | 4.135 ± 0.166 10^12 M^−1s^−1 | 4.135 ± 0.166 10^4 M^−1 | 0.674 ± 0.002 | quenched | 13.365 | 237.483 | 2.363 | 0.6742 | Kd ([1]; Ka (binding constant), 296 K): 2920 µM; Kd ([1]; Ka (binding constant), 303 K): 1710 µM; Kd ([1]; Ka (binding constant), 310 K): 1050 µM; α-helix contents ([2]; 5:1 (Pesticide:HSA)): 49.087%; α-helix contents ([2]; 10:1 (Pesticide:HSA)): 48.340%; LD50 [3]: 200 mg/kg; Toxicity [3]: Moderately |
| CNC(=O)Oc1ccccc1C(C)C [Isoprocarb, isoprocarb] | 30154.52708 | −18.11 | -3.6472 | 2.175 ± 0.070 10^12 M^−1s^−1 | 2.175 ± 0.070 10^4 M^−1 | 0.669 ± 0.004 | -3.9873 | 2.758 ± 0.048 10^12 M^−1s^−1 | 2.758 ± 0.048 10^4 M^−1 | 0.689 ± 0.004 | -4.3274 | 2.338 | 3.015 ± 0.043 10^12 M^−1s^−1 | 3.015 ± 0.043 10^4 M^−1 | 0.712 ± 0.009 | quenched | 10.734 | 203.281 | 2.338 | 0.7116 | Kd ([1]; Ka (binding constant), 296 K): 2050 µM; Kd ([1]; Ka (binding constant), 303 K): 1300 µM; Kd ([1]; Ka (binding constant), 310 K): 900 µM; α-helix contents ([2]; 5:1 (Pesticide:HSA)): 50.878%; α-helix contents ([2]; 10:1 (Pesticide:HSA)): 49.242%; LD50 [3]: 450 mg/kg; Toxicity [3]: Moderately |

— patent US12385839B2, “Use of protein in predicting drug properties” (priority 2021, dated 2025)
